The record followed here is paper PMC11433764, “A Novel Compound from the Phenylsulfonylpiperazine Class: Evaluation of In Vitro Activity on Luminal Breast Cancer Cells” (Molecules, 2024).

For the assay, the system named is ENTPD3. As to the kind of experiment: qPCR, ENTPD3 expression in MCF7. It counts as cell-based. The note with it: vs untreated cells. On the procedure:
Total RNA was extracted using Trizol reagent (Invitrogen), according to the manufacturer’s protocol. The quality of extracted RNA was verified by the spectrophotometric readings at 260 and 280 nm (Nanodrop 1000-ThermoFisher), and the first strand of cDNA was synthesized from 1 µg of total RNA via reverse transcription using GoScript™ Reverse Transcription Mix (Promega, Madison, WI, EUA). qPCR analysis was performed using 5.0 μL of Power SYBR Green PCR Master Mix (Applied Biosystems, Carlsbad, CA, USA) and run on a StepOnePlus Systems (Applied Biosystems, Carlsbad, CA, USA) device with the following cycling parameters: 40 cycles of 95 °C for 10 s and 60 °C for 30 s. The comparative Cq was used to find the relative expression of CDH1 (E-caderina), ENTPD1 (ectonucleoside triphosphate diphosphohydrolase 1), ENTPD2 (ectonucleoside triphosphate diphosphohydrolase 2), ENTPD3 (ectonucleoside triphosphate diphosphohydrolase 3), ENTPD5 ([…]) and KRT10 (keratin 10) genes, after relative standard curve optimization. β-2-microglobulin (β2M) was used as a reference gene. The primer sequences are described in Table 3.

As for `O=C(c1ccc(-n2cnnn2)cc1)N1CCN(S(=O)(=O)c2ccc(Cl)cc2)CC1` [Compound 3, (4-(1H-tetrazol-1-yl)phenyl)(4-((4-chlorophenyl)sulfonyl)piperazin-1-yl)methanone], the “Fold Change ENTPD3 mRNA” value was 1.641 (MCF7, 1.125 µM); 1.074 (MCF7, 2.25 µM); 1.229 (MCF7, 4.5 µM).
